Measurements published in US12350283B2, “Methods and compositions for treating motor neuron diseases” (UNIVERSITAT DE VALENCIA-ESTUDI GENERAL, priority 2019, dated 2025).

Columns and labels:
SOD1-G93A mice [1] = assay: Rotarod test in SOD1 mice; assay type: in vivo, mouse; conditions: for Rotarod test (maximum period on rotating axle): SOD1 mice, limit 1200 seconds, mean
Protocol: (§1) EH301 [Nicotinamide riboside (NR) and pterostilbene (PT)] was administered orally: 185 mg of nicotinamide riboside and 30 mg of pterostilbene/Kg×day (Estrela J M, De La Rubia J E, Dellinger R W. Treating and preventing motor neuron disease using nicotinamide riboside. PCT/US 18/32932, 2018).
(§2) Dexamethasone (DXM) was administered i.p. following sequential 4 weeks-cycle along the experimental time: 1 mg/Kg×day (1st week), 0.5 mg/Kg×day (2nd week), 0.25 mg/Kg×day (3rd week), 0.0 mg/Kg×day ([…]). The dose of 1 mg/Kg was selected based on Kurkowska-Jastrzebska I, Litwin T, Joniec I, Ciesielska A, Przybyłkowski A, Członkowski A, Członkowska A. Dexamethasone protects against dopaminergic neurons damage in a mouse model of Parkinson's disease. Int Immunopharmacol. 2004 October; 4(10-11):1307-18. The cyclic dose regime was designed to optimize the therapeutic benefit causing minimal possible side effects.
(§3) Ibudilast (IB) was administered orally: 12 mg/Kg×day (Wang H, Mei Zl, Zhong K L, Hu M, Long Y, Miao M X, Li N, Yan T H, Hong H. Pretreatment with antiasthmatic drug ibudilast ameliorates Aβ 1-42-induced memory impairment and neurotoxicity in mice. Pharmacol Biochem Behav. 2014 September; 124:373-9).
(§4) Daily doses of NR, DXM and IB were administered together dissolved in 75 uL of physiological saline. PT was present in the chow of laboratory animals. The PT dose was adjusted based on the animal weight and the amount of food ingested per day.
Functions of the test include evaluating balance, grip strength and motor coordination of the subjects; especially in testing the effect of experimental drugs. For this test (Rota Rod, Harvard Apparatus, Holliston, MA) each animal was given three trials and the maximum period (seconds) that it could remain on a rotating axle (3.5 cm diameter; speed of rotation: 15 rpm) without falling was measured. Each mouse was given up to three attempts for an arbitrary limit of 1200 seconds and the longest period was recorded. Changes over time in the different groups were monitored weekly.
(§5) • Data are presented as mean values f SD for the number of different experiments. • Statistical analyses were performed using Student's t-test. • P<0.05 and **P<0.01 comparing all SOD1 groups versus WT (wild type). • ^+P<0.05 and ^++P<0.01 comparing all SOD1 groups treated with EH301, DXM, IB or their combinations versus SOD1 untreated controls. • ^aP<0.05 and ^aaP<0.01 comparing SOD1+EH301+DXM or SOD1+EH301+IB groups versus SOD1+EH301. • ^bP<0.05 and ^bbP<0.01 comparing SOD1+EH301+DXM or SOD1+EH301+IB groups versus SOD1+DXM • ^cP<0.05 and ^ccP<0.01 comparing SOD1+EH301+DXM or SOD1+EH301+IB groups versus SOD1+IB

SOD1-G93A mice [2] = assay: Neurological score (scale of Weydt et al.) in SOD1 mice; assay type: in vivo, mouse; conditions: scale 0-5
Protocol: as §1, §2, §3, §4
This neurological score is based on the scale of Weydt et al. (Weydt, P., Hong, S. Y., Kliot, M., Moller, T., 2003. Assessing disease onset and progression in the SOD1 mouse model of ALS. NeuroReport 14, 1051-1054). […] When the animals reach a score of “4”, the access to food and water will be facilitated by placing food pellets on the cage floor to all transgenic mice. Reaching a score of “5”, the animals will be euthanized for ethical reasons. Onset is defined as the earliest time when the mice show symptoms (score <4). Changes over time in the different groups were monitored weekly.
as §5

SOD1-G93A mice [3] = assay: Survival of SOD1 G93A mice (Kaplan-Meier); assay type: in vivo, mouse; conditions: for Survival time (surviving mice per group): SOD1 mice
Excerpt: Mice hemizygous for SOD1-G93A (also called G93A-SOD1) transgene are viable and fertile, with transgenic expression of a G93A mutant form of human SOD1. This founder line (often referred to as G1H) is reported to have a high transgene copy number. […] Motor neuron degeneration has been associated with function and/or degeneration of astrocytes, the major glial cell type of the nervous system. Transgenic mice have an abbreviated life span: 50% survive at 157.1+/−9.3 days (in contrast to the mixed B6SJL background where 50% survival is observed at 128.9+/−9.1 days). Female hemizygotes are poor breeders, and rarely produce more than one litter before the onset of disease. […] The pattern of gene expression in SOD1G93A activated microglia represents a unique ALS-specific signature. These SOD1-G93A (also called G93A-SOD1) transgenic mice us thus useful in studying neuromuscular disorders, including Amyotrophic Lateral Sclerosis.
The SOD1-G93A transgene was designed with a mutant human SOD1 gene (harboring a single amino acid substitution of glycine to alanine at codon 93) driven by its endogenous human SOD1 promoter. This transgene was injected into fertilized B6SJLF1 mouse eggs and founder animals were obtained. Transgenic mice on a mixed B6SJL genetic background were sent to The Jackson Laboratory (as Stock No. 002726). Upon arrival, some mice were backcrossed to C57BL/6J for at least 10 generations to generate this congenic strain (Stock No. 004435). The backcross was completed in July 2002.
as §1, §2, §3, §4, §5

FUS-R521C mice = assay: Survival of FUS-R521C mice; assay type: in vivo, mouse
Protocol: FUS-R521C mice (ALS model; transgene injected into B6SJL oocytes. Maintained on C57BL/6, therefore subsequent generations have a higher percentage of C57BL/6) were selected for methods examining the effects of the addition of acetylcysteine.
Acetylcysteine (NAC) was administered intraperitoneally (IP): 100 mg/kg per day, beginning on week 30, in experiments examining the effect of the addition of NAC.

[4] = after oral administration; cited from earlier work
[5] = SOD1-G93A mice, versus control untreated

C[C@@H]1C[C@H]2[C@@H]3CCC4=CC(=O)C=C[C@]4(C)[C@@]3(F)[C@@H](O)C[C@]2(C)[C@@]1(O)C(=O)CO [DXM, Dexamethasone]
Rotarod test (maximum period on rotating axle) (SOD1-G93A mice [1]; week 10, 15 rpm): 1200 s
Rotarod test (maximum period on rotating axle) (SOD1-G93A mice [1]; week 11, 15 rpm): 1200 s
Rotarod test (maximum period on rotating axle) (SOD1-G93A mice [1]; week 12, 15 rpm): 1200 s
Rotarod test (maximum period on rotating axle) (SOD1-G93A mice [1]; week 13, 15 rpm): 1200 s
Rotarod test (maximum period on rotating axle) (SOD1-G93A mice [1]; week 14, 15 rpm): 1200 s
Rotarod test (maximum period on rotating axle) (SOD1-G93A mice [1]; week 15, 15 rpm): 1130 s
Rotarod test (maximum period on rotating axle) (SOD1-G93A mice [1]; week 16, 15 rpm): 1045 s
Rotarod test (maximum period on rotating axle) (SOD1-G93A mice [1]; week 17, 15 rpm): 820 s
Rotarod test (maximum period on rotating axle) (SOD1-G93A mice [1]; week 18, 15 rpm): 336 s
Rotarod test (maximum period on rotating axle) (SOD1-G93A mice [1]; week 19, 15 rpm): 225 s
Rotarod test (maximum period on rotating axle) (SOD1-G93A mice [1]; week 20, 15 rpm): 161 s
Rotarod test (maximum period on rotating axle) (SOD1-G93A mice [1]; week 21, 15 rpm): 52 s
Rotarod test (maximum period on rotating axle) (SOD1-G93A mice [1]; week 22, 15 rpm): 0 s
Neurological score (SOD1-G93A mice [2]; week 10, mean): 0
Neurological score (SOD1-G93A mice [2]; week 11, mean): 0
Neurological score (SOD1-G93A mice [2]; week 12, mean): 0
Neurological score (SOD1-G93A mice [2]; week 13, mean): 0
Neurological score (SOD1-G93A mice [2]; week 14, mean): 0.50
Neurological score (SOD1-G93A mice [2]; week 15, mean): 0.70
Neurological score (SOD1-G93A mice [2]; week 16, mean): 1
Neurological score (SOD1-G93A mice [2]; week 17, mean): 1
Neurological score (SOD1-G93A mice [2]; week 18, mean): 1.60
Neurological score (SOD1-G93A mice [2]; week 19, mean): 2.50
Neurological score (SOD1-G93A mice [2]; week 20, mean): 3
Neurological score (SOD1-G93A mice [2]; week 21, mean): 3.40
Neurological score (SOD1-G93A mice [2]; week 22, mean): 4
Survival time (surviving mice per group) (SOD1-G93A mice [3]; week 10): 10
Survival time (surviving mice per group) (SOD1-G93A mice [3]; week 11): 10
Survival time (surviving mice per group) (SOD1-G93A mice [3]; week 12): 9
Survival time (surviving mice per group) (SOD1-G93A mice [3]; week 13): 9
Survival time (surviving mice per group) (SOD1-G93A mice [3]; week 14): 9
Survival time (surviving mice per group) (SOD1-G93A mice [3]; week 15): 9
Survival time (surviving mice per group) (SOD1-G93A mice [3]; week 16): 9
Survival time (surviving mice per group) (SOD1-G93A mice [3]; week 17): 9
Survival time (surviving mice per group) (SOD1-G93A mice [3]; week 18): 9
Survival time (surviving mice per group) (SOD1-G93A mice [3]; week 19): 9
Survival time (surviving mice per group) (SOD1-G93A mice [3]; week 20): 7
Survival time (surviving mice per group) (SOD1-G93A mice [3]; week 21): 4
Survival time (surviving mice per group) (SOD1-G93A mice [3]; week 22): 1
Survival time (surviving mice per group) (SOD1-G93A mice [3]; week 23): 0

CC(C)C(=O)c1c(C(C)C)nn2ccccc12 [IBU, 2-methyl-1-(2-(1-methylethyl)pyrazolo(1,5-a)pyridin-3-yl)1-propanone]
motor coordination / motor-neuron dependent functions (in words) (SOD1-G93A mice [1]; [5]): some improvement
Rotarod test (maximum period on rotating axle) (SOD1-G93A mice [1]; week 10, 15 rpm): 1200 s
Rotarod test (maximum period on rotating axle) (SOD1-G93A mice [1]; week 11, 15 rpm): 1200 s
Rotarod test (maximum period on rotating axle) (SOD1-G93A mice [1]; week 12, 15 rpm): 1200 s
Rotarod test (maximum period on rotating axle) (SOD1-G93A mice [1]; week 13, 15 rpm): 1200 s
Rotarod test (maximum period on rotating axle) (SOD1-G93A mice [1]; week 14, 15 rpm): 1200 s
Rotarod test (maximum period on rotating axle) (SOD1-G93A mice [1]; week 15, 15 rpm): 1200 s
Rotarod test (maximum period on rotating axle) (SOD1-G93A mice [1]; week 16, 15 rpm): 1200 s
Rotarod test (maximum period on rotating axle) (SOD1-G93A mice [1]; week 17, 15 rpm): 926 s
Rotarod test (maximum period on rotating axle) (SOD1-G93A mice [1]; week 18, 15 rpm): 544 s
Rotarod test (maximum period on rotating axle) (SOD1-G93A mice [1]; week 19, 15 rpm): 197 s
Rotarod test (maximum period on rotating axle) (SOD1-G93A mice [1]; week 20, 15 rpm): 102 s
Rotarod test (maximum period on rotating axle) (SOD1-G93A mice [1]; week 21, 15 rpm): 30 s
Rotarod test (maximum period on rotating axle) (SOD1-G93A mice [1]; week 22, 15 rpm): 0 s
Neurological score (SOD1-G93A mice [2]; week 10, mean): 0
Neurological score (SOD1-G93A mice [2]; week 11, mean): 0
Neurological score (SOD1-G93A mice [2]; week 12, mean): 0
Neurological score (SOD1-G93A mice [2]; week 13, mean): 0
Neurological score (SOD1-G93A mice [2]; week 14, mean): 0
Neurological score (SOD1-G93A mice [2]; week 15, mean): 0.30
Neurological score (SOD1-G93A mice [2]; week 16, mean): 0.75
Neurological score (SOD1-G93A mice [2]; week 17, mean): 1
Neurological score (SOD1-G93A mice [2]; week 18, mean): 1.50
Neurological score (SOD1-G93A mice [2]; week 19, mean): 2.20
Neurological score (SOD1-G93A mice [2]; week 20, mean): 3
Neurological score (SOD1-G93A mice [2]; week 21, mean): 3.70
Neurological score (SOD1-G93A mice [2]; week 22, mean): 4
survival (FUS-R521C mice; FIGS. 3A-3C, end of study 45 weeks): about 30 weeks
mean survival (SOD1-G93A mice [3]; SOD1-G93A mice treated from day 50): 137 days
survival (in words) (SOD1-G93A mice [3]; [5]): some improvement
Survival time (surviving mice per group) (SOD1-G93A mice [3]; week 10): 10
Survival time (surviving mice per group) (SOD1-G93A mice [3]; week 11): 10
Survival time (surviving mice per group) (SOD1-G93A mice [3]; week 12): 10
Survival time (surviving mice per group) (SOD1-G93A mice [3]; week 13): 10
Survival time (surviving mice per group) (SOD1-G93A mice [3]; week 14): 10
Survival time (surviving mice per group) (SOD1-G93A mice [3]; week 15): 10
Survival time (surviving mice per group) (SOD1-G93A mice [3]; week 16): 10
Survival time (surviving mice per group) (SOD1-G93A mice [3]; week 17): 10
Survival time (surviving mice per group) (SOD1-G93A mice [3]; week 18): 10
Survival time (surviving mice per group) (SOD1-G93A mice [3]; week 19): 8
Survival time (surviving mice per group) (SOD1-G93A mice [3]; week 20): 4
Survival time (surviving mice per group) (SOD1-G93A mice [3]; week 21): 3
Survival time (surviving mice per group) (SOD1-G93A mice [3]; week 22): 1
Survival time (surviving mice per group) (SOD1-G93A mice [3]; week 23): 0

CC(=O)N[C@@H](CS)C(=O)O [NAC, N-acetylcysteine]
half-life [4]: about 6 hours
time to max. plasma level [4]: 2 to 3 h
survival (FUS-R521C mice; FIG. 3C): about 32 days
